Where “and” joins values, the source holds several entries; their conditions need not be identical. Equal entries are not always repeated.
Tested on: 991263-137-R1-J2-PDC complex spheroid viability
Assay: Anticancer human tumor 991263-137-R1-J2-PDC patient-derived colon adenocarcinoma cell line growth inhibition [POLQ]
Details: for viability, T/C: stronger effect = lower value
Protocol: Multicellular complex tumor spheroid response to Polymerase (POL) inhibitors (novobiocin, ART-558, RP6685) in combination with a variety of drugs and investigational agents in selected tumor cell lines
The POL inhibitors (novobiocin, ART-558, and RP6685) were evaluated both individually and in combination with standard of care and investigational anticancer small molecules within a complex spheroid model of solid tumors. . Complex spheroids include a stromal component modeled by human endothelial cells (HUVEC) and fibroblasts modeled by human mesenchymal stem cells (MSCs). The concentration ranges selected for each drug and investigational agent were based upon clinically achievable concentrations if the clinical Cmax of the agent was known.
Compounds. The drugs and investigational agents: novobiocin (NSC847541), ART-558 (NSC835418), RP-6685 (NSC848927), peposertib (NSC802822), ceralasertib (NSC780249), elimusertib (NSC800525), camonsertib (NSC841442), AZD-1390 (NSC803789), olaparib (NSC753686), talazoparib (NSC767125), rucaparib (NSC756644), sotorasib (NSC818433), MRTX-1133 (NSC836407), SN-38 (NSC673596), topotecan (NSC609699), epotoside (NSC141540), doxorubicin (NSC123127), gemcitabine (NSC613327), 5-fluorouracil (NSC19893), paclitaxel (NSC125973), vemurafenib (NSC761431), MSA-2 (NSC828583), SN-011 (NSC837082), adavosertib (NSC754352), prexasertib (NSC758257), carboplatin (NSC241240) and oxaliplatin (NSC266046), were obtained from the National Cancer Institute (NCI) Developmental Therapeutics Program Chemical Repository (21). The FDA-approved anticancer drug set is available from the Developmental Therapeutics Program at https://dtp.cancer.gov/organization/dscb/obtaining/. […] The stock solutions were prepared in dimethyl sulfoxide (DMSO, Sigma-Aldrich, St. Louis, MO, cat. D2650), except for the platinum compounds which were prepared in saline (Quality Biological, Gaithersburg, MD, cat. 114-055-101), at 800-fold the tested concentration and stored at -70 degrees C prior to their use. All drugs and investigational agents were tested over a range starting from a high concentration at or near the clinical Cmax and decreasing in half-log increments. If the clinical Cmax for an agent had not been determined, the highest concentration tested was 10 microM, except for SN-38, which was tested at a high concentration of 1 microM.
Cell Culture. All cells were maintained in an incubator at 37 degrees C and 5% CO2 with 95% humidity. The PDC lines were cultured according to standard operating procedures established by the NCI PDMR (https://pdmr.cancer.gov). Table 3 of the manuscript, lists the cell lines along with the number of the three cell types plated to form the mct-spheroids and media for tumor cell growth. After thawing, all PDC lines, except 997537-175-T-J1-PDC and 415267-285-R-J2-PDC, were cultured in Matrigel-coated flasks prepared with a working solution of 1X Ham's F-12 nutrient mix, without supplementation (Thermo Fisher Scientific, cat. 11765054), 100 U/mL penicillin-streptomycin (Thermo Fisher Scientific, cat. 15140122), and 2.5% Matrigel (Corning Inc., Corning, NY, cat. 354248) for the first three passages. The two PDC lines 997537-175-T-J1-PDC and 415267-285-R-J2-PDC were cultured on uncoated flasks. The 857933-349-R-J2-PDC line was cultured in 6C/Colon 1B media containing advanced DMEM/F-12 (Thermo Fisher Scientific, cat. 12634028), 10 mM HEPES (Thermo Fisher Scientific, cat. 15630080), 1X GlutaMAX supplement (Thermo Fisher Scientific, cat. 35050061), 0.1 mg/mL primocin (InvivoGen, San Diego, CA, cat. ant-pm-2), 10% defined fetal bovine serum, heat inactivated (HyClone Laboratories Inc., Logan, UT, cat. SH30070.03HI), 50% L-WRN conditioned media (ATCC, cat. CRL-3276), 1.25 mM N-Acetyl-L-cysteine (Sigma-Aldrich, cat. A9165), 10 mM nicotinamide (Sigma-Aldrich, cat. N0636), 1X B-27 supplement (Thermo Fisher Scientific, cat. 17504044), 1X N-2 supplement (Thermo Fisher Scientific, cat. […]
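Note: spheroids exposed to compounds for 7 days before readout.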
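Throughout, for viability, T/C: 100% = DMSO vehicle control viability.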

Nc1ccn(C2OC(CO)C(O)C2(F)F)c(=O)n1 (configuration not stated)
viability, T/C (compound 0.0316 µM): 90.8% and 85.4% and 75.5%
viability, T/C (compound 0.1 µM): 53.7% and 74.1% and 58.9%
viability, T/C (compound 0.316 µM): 69% and 61.1% and 58.6%
viability, T/C (compound 1 µM): 58.6% and 60.4% and 47.9%
viability, T/C (compound 3.16 µM): 37.6% and 56.2% and 37.2%
viability, T/C (compound 10 µM): 40.8% and 47% and 37.3%

COc1cc2cc(C(=O)CCC(=O)O)sc2cc1OC
viability, T/C (compound 0.0316 µM): 104% and 107% and 91.3%
viability, T/C (compound 0.1 µM): 85% and 96.5% and 104%
viability, T/C (compound 0.316 µM): 117% and 104% and 114%
viability, T/C (compound 10 µM): 74.1% and 83.3% and 78.4%
IC50 (curve of compound): > 10000 nM

O=C(c1cc(Cc2n[nH]c(=O)c3ccccc23)ccc1F)N1CCN(C(=O)C2CC2)CC1
viability, T/C (compound 0.0316 µM): 106% and 90.8% and 97%
viability, T/C (compound 0.1 µM): 97.2% and 97.7% and 99.1%
viability, T/C (compound 0.316 µM): 84.8% and 95.7% and 101%
viability, T/C (compound 1 µM): 108% and 85.4% and 103%
viability, T/C (compound 3.16 µM): 105% and 92.7% and 98.1%
IC50 (curve of compound): > 10000 nM

COC1C(OC(N)=O)C(O)C(Oc2ccc3c(O)c(NC(=O)c4ccc(O)c(CC=C(C)C)c4)c(=O)oc3c2C)OC1(C)C (configuration not stated)
viability, T/C (compound 0.0316 µM): 102% [middle of 12 runs]
viability, T/C (compound 0.316 µM): 103% [middle of 12 runs]
IC50 (compound alone, run of 01/08/2024): > 10000 nM

Nc1ccn(C2OC(CO)C(O)C2(F)F)c(=O)n1 (configuration not stated) + Cc1cccc(N(C)C(=O)C2C(O)CCN2c2nc(C)cc(C(F)(F)F)c2C#N)c1
IC50 (curve of first compound, second compound 0.0316 µM): 873 nM
IC50 (curve of first compound, second compound 0.1 µM): 1310 nM
IC50 (curve of first compound, second compound 0.316 µM): 1150 nM
IC50 (curve of first compound, second compound 1 µM): 1910 nM
IC50 (curve of first compound, second compound 3.16 µM): 3040 nM
IC50 (curve of first compound, second compound 10 µM): 2030 nM
viability, T/C (second compound 0.0316 µM, first compound 0.0316 µM): 85.6%
viability, T/C (second compound 0.0316 µM, first compound 0.1 µM): 74.6%
viability, T/C (second compound 0.0316 µM, first compound 0.316 µM): 57.2%
viability, T/C (second compound 0.0316 µM, first compound 1 µM): 48%
viability, T/C (second compound 0.0316 µM, first compound 3.16 µM): 52.4%
viability, T/C (second compound 0.0316 µM, first compound 10 µM): 42.4%
viability, T/C (second compound 0.1 µM, first compound 0.0316 µM): 99.4%
viability, T/C (second compound 0.1 µM, first compound 0.1 µM): 66.4%
viability, T/C (second compound 0.1 µM, first compound 0.316 µM): 60.6%
viability, T/C (second compound 0.1 µM, first compound 1 µM): 62.4%
viability, T/C (second compound 0.1 µM, first compound 3.16 µM): 40.3%
viability, T/C (second compound 0.1 µM, first compound 10 µM): 41.5%
viability, T/C (second compound 0.316 µM, first compound 0.0316 µM): 82.6%
viability, T/C (second compound 0.316 µM, first compound 0.1 µM): 70.5%
viability, T/C (second compound 0.316 µM, first compound 0.316 µM): 54.9%
viability, T/C (second compound 0.316 µM, first compound 1 µM): 52.6%
viability, T/C (second compound 0.316 µM, first compound 3.16 µM): 48.4%
viability, T/C (second compound 0.316 µM, first compound 10 µM): 38.5%
viability, T/C (second compound 1 µM, first compound 0.0316 µM): 75.6%
viability, T/C (second compound 1 µM, first compound 0.1 µM): 63.8%
viability, T/C (second compound 1 µM, first compound 0.316 µM): 53.1%
viability, T/C (second compound 1 µM, first compound 1 µM): 50%
viability, T/C (second compound 1 µM, first compound 3.16 µM): 53.6%
viability, T/C (second compound 1 µM, first compound 10 µM): 46%
viability, T/C (second compound 3.16 µM, first compound 0.0316 µM): 69.2%
viability, T/C (second compound 3.16 µM, first compound 0.1 µM): 64.2%
viability, T/C (second compound 3.16 µM, first compound 0.316 µM): 54.7%
viability, T/C (second compound 3.16 µM, first compound 1 µM): 54%
viability, T/C (second compound 3.16 µM, first compound 3.16 µM): 53.2%
viability, T/C (second compound 3.16 µM, first compound 10 µM): 45%
viability, T/C (second compound 10 µM, first compound 0.0316 µM): 80.2%
viability, T/C (second compound 10 µM, first compound 0.1 µM): 70.3%
viability, T/C (second compound 10 µM, first compound 0.316 µM): 63.5%
viability, T/C (second compound 10 µM, first compound 1 µM): 49.6%
viability, T/C (second compound 10 µM, first compound 3.16 µM): 51.8%
viability, T/C (second compound 10 µM, first compound 10 µM): 41.5%

CCc1cc2c(N3CCc4c(cc(Cn5ccnc5)cc4-c4cn(C)nc4C(F)(F)F)C3=O)cc(C)nc2c(OC)n1
viability, T/C (compound 0.0316 µM): 107% and 96% and 92.8%
viability, T/C (compound 0.1 µM): 101% and 98.5% and 96.4%
viability, T/C (compound 3.16 µM): 97.9% and 96.1% and 96.5%
viability, T/C (compound 10 µM): 93.5% and 82.6% and 105%
IC50 (curve of compound): > 10000 nM

— PubChem BioAssay AID1963828 (Molecular Pharmacology Branch, DTP, NCI, 2024)
